From ChEMBL document CHEMBL1135023, “A lipophilic thioflavin-T derivative for positron emission tomography (PET) imaging of amyloid in brain” (Bioorg Med Chem Lett, 2002) come the findings set out here.

The nature of data set [1]: Octanol-water partition at pH 7.4. The format is physicochemical.
In data set [2] the test system is Mus musculus. Nature of the data set: Compound was tested in vivo for mouse brain uptake after 30 min; Mouse brain uptake per g. In kind it is functional, organism-based.
Data set [3] has as its system Mus musculus. Nature of the data set: Compound was tested in vivo for mouse brain uptake after 2 min; Mouse brain uptake per g. In kind it is functional, organism-based.
A short description of data set [4]: Ratio of 2-30 min mouse brain uptakes per g was determined. The format is functional.
Data set [5] can be described thus: In vitro binding using synthetic aggregated Abeta(1-40) fibrils.

Usually logD stands for lipophilicity at a set pH, counting ionised and neutral species. A low value points to lower lipophilicity. In data set [1], `CNc1ccc(-c2nc3ccccc3s2)cc1` gave a logD of 2.7. For the same compound, the ID/g worked out at 1.7% in the data set with Mus musculus [2] and 12.9% with Mus musculus [3].
By Ki is commonly meant a measure of affinity in units of concentration, obtained from inhibition or displacement. Take `CNc1ccc(-c2nc3ccc(C)cc3s2)cc1`: the Ratio in data set [4] was found to be 2.7. This compound also showed a logD in data set [1] of 3.4. Moreover, the ID/g was 2.8% with Mus musculus [2] and 7.6% in the data set on Mus musculus [3]. The inhibition constant Ki in data set [5] is 0.01 µM.
`Cc1ccc2c(c1)sc(-c1ccc(N(C)C)cc1)[n+]2C` registered a logD in data set [1] of 0.57.
